Where no end group is shown, it is not given here.
Experiments:
[1] = system: NKG2A−/NKG2C+ NK cells; assay: NK cell activation markers in NKG2A-/NKG2C+ NK cells incubated with peptide and K562 expressing HLA-E (activation); format: cell-based, human; conditions: for percentage of CCL3+ NK cells / percentage of CD107+ NK cells / percentage of IFNG+ NK cells / percentage of TNF+ NK cells: NKG2A-/NKG2C+ NK cells, K562/HLA-E
How it was run: (§1)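 Percent-positive cells for NK activation surface markers were measured after NK cells met peptide-treated K562 cells expressing HLA-E. A decrease in that fraction was scored as inhibition and an increase as activation; NKG2A−/NKG2C− cells served as controls.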

[2] = system: NKG2A−/NKG2C− NK cells; assay: NK cell activation markers in control NKG2A-/NKG2C- NK cells incubated with peptide and K562 expressing HLA-E; format: cell-based, human
How it was run: as §1

In the case of TLPKRGLFL [human2, TLPKRGLFL], the “effect on NKG2A−/NKG2C+ NK cell activation (in words)” value ([1]; K562 expressing HLA-E, CD107a, IFNG, TNF, CCL3) is reported as “strong activating effects”, the “percentage of CCL3+ NK cells” value ([1]; Trial 1) is reported as 80.9% and the “percentage of CD107+ NK cells” value ([1]; Trial 1) is reported as 80%. The “percentage of IFNG+ NK cells” value ([1]; Trial 1) was 69.5%, the “percentage of TNF+ NK cells” value ([1]; Trial 1) was 57.3% and the “percentage of CCL3+ NK cells” value ([1]; Trial 2) was 92.4%. For the same sequence, the “percentage of CD107+ NK cells” value ([1]; Trial 2) was 87.3%, the “percentage of IFNG+ NK cells” value ([1]; Trial 2) was 82.3% and the “percentage of TNF+ NK cells” value ([1]; Trial 2) was 72.6%. For the same sequence, the “percentage of CCL3+ NK cells” value ([1]; Trial 3) was 86.1%, the “percentage of CD107+ NK cells” value ([1]; Trial 3) was 88.3% and the “percentage of IFNG+ NK cells” value ([1]; Trial 3) was 83%. For the same sequence, the “percentage of TNF+ NK cells” value ([1]; Trial 3) was 73.8%, the “percentage of CCL3+ NK cells” value ([1]; Trial 4) was 71.8% and the “percentage of CD107+ NK cells” value ([1]; Trial 4) was 71.7%. The “percentage of IFNG+ NK cells” value ([1]; Trial 4) was 64.5%, the “percentage of TNF+ NK cells” value ([1]; Trial 4) was 56.2% and the “percentage of CCL3+ NK cells” value ([1]; Trial 5) was 75.8%. The “percentage of CD107+ NK cells” value ([1]; Trial 5) was 69.9%, the “percentage of IFNG+ NK cells” value ([1]; Trial 5) was 63.2% and the “percentage of TNF+ NK cells” value ([1]; Trial 5) was 57.8%. For the same sequence, the “percentage of CCL3+ NK cells” value ([1]; Trial 6) was 62.1%, the “percentage of CD107+ NK cells” value ([1]; Trial 6) was 59.3% and the “percentage of IFNG+ NK cells” value ([1]; Trial 6) was 50.7%. For the same sequence, the “percentage of TNF+ NK cells” value ([1]; Trial 6) was 41.1%, the “percentage CCL3+ NK cells” value ([2]; Trial 1) was 31.9% and the “percentage CD107+ NK cells” value ([2]; Trial 1) was 26.1%. For the same sequence, the “percentage TNF+ NK cells” value ([2]; Trial 1) was 4.12%, the “percentage of IFNG+ NK cells” value ([2]; Trial 1) was 16.2% and the “percentage CCL3+ NK cells” value ([2]; Trial 2) was 57.4%. The “percentage CD107+ NK cells” value ([2]; Trial 2) was 34.1%, the “percentage TNF+ NK cells” value ([2]; Trial 2) was 8.51% and the “percentage of IFNG+ NK cells” value ([2]; Trial 2) was 24.9%. The “percentage CCL3+ NK cells” value ([2]; Trial 3) was 49.9%, the “percentage CD107+ NK cells” value ([2]; Trial 3) was 46.1% and the “percentage TNF+ NK cells” value ([2]; Trial 3) was 15.8%. The “percentage of IFNG+ NK cells” value ([2]; Trial 3) was 37.4%, the “percentage CCL3+ NK cells” value ([2]; Trial 4) was 34.8% and the “percentage CD107+ NK cells” value ([2]; Trial 4) was 30.1%. The “percentage TNF+ NK cells” value ([2]; Trial 4) was 9.02%, the “percentage of IFNG+ NK cells” value ([2]; Trial 4) was 18.9% and the “percentage CCL3+ NK cells” value ([2]; Trial 5) was 25.6%. The “percentage CD107+ NK cells” value ([2]; Trial 5) was 18.1%, the “percentage TNF+ NK cells” value ([2]; Trial 5) was 6.52% and the “percentage of IFNG+ NK cells” value ([2]; Trial 5) was 13.9%. For the same sequence, the “percentage CCL3+ NK cells” value ([2]; Trial 6) was 24.6%, the “percentage CD107+ NK cells” value ([2]; Trial 6) was 19.1% and the “percentage TNF+ NK cells” value ([2]; Trial 6) was 5.25%. The “percentage of IFNG+ NK cells” value ([2]; Trial 6) was 10%.
